The values that follow are results of earlier work, collected in patent US20040259834A1, “Therapeutic composition containing at least diflomotecan and capecitabine” (priority 2003, published 2004).

SMILES strings stand for the structures.

The conditions of data set [1]: 7-membered β-hydroxylactone ring, more stable lactone form.
The next data set has as its system various xenografts. Conditions: various xenografts growing in nude mice.

For the compound `CC[C@@]1(O)CC(=O)OCc2c1cc1n(c2=O)Cc2cc3cc(F)c(F)cc3nc2-1` [Diflomotecan], the plasma stability entry in data set [1] was “greater plasma stability”. In addition, in the data set with various xenografts, the activity against xenografts entry is “excellent activity”.
